Assay results reported in patent publication US20230213525A1, “DETECTING MICROBIAL INFECTION IN WOUNDS” (QUALIZYME DIAGNOSTICS GMBH & CO KG, priority 2016, published 2023).

What was measured:
Format in all cases: biochemical
[1] = test system: Phospholipase C; test: Phospholipase C based test, liquid system, wound fluid; conditions: room temperature, 30 minutes, visual inspection
Protocol: For this diagnostic tool, p-Nitrophenylphosphorylcholine as substrate for Phospholipase C was used. p-Mtrophenylphosphorylcholine is dissolved in water (50-100 mM). A 250 mM: Tris/HCi buffer with 70% Sorbitol pH 7.2 was used as assay buffer. 230 µl of the buffer and 100 µl of the substrate are pipetted into a microtiterplate.
(§1) This mixture is incubated at room temperature for 30 minutes.

[2] = target: T1, MPO (Homo sapiens, UniProt P05164); test: Colorimetric enzyme assay for detection of myeloperoxidase activity; conditions: 1 mg/mL, pH 6.4, 5 mM H2O2
T1 sequence (P05164 49-745): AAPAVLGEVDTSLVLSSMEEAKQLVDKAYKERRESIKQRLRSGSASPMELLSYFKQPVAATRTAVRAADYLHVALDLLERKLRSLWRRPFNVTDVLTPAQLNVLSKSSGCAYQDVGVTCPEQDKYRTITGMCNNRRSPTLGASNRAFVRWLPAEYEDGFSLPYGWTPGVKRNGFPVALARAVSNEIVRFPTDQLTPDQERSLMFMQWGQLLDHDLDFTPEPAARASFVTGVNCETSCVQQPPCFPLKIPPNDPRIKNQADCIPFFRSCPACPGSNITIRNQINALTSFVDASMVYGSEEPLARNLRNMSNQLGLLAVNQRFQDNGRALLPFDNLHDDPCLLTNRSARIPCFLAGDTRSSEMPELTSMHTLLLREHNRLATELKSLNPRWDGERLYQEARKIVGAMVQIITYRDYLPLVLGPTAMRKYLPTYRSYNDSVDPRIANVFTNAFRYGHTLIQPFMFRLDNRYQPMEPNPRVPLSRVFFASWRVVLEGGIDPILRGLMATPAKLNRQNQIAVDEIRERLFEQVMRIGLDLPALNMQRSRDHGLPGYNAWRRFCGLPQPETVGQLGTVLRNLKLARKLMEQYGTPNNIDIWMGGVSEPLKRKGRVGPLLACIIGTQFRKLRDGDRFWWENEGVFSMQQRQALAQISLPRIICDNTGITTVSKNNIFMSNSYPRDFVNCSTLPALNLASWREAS

[3] = target: T2, Myeloperoxidase (Homo sapiens, UniProt P05164); test: Myeloperoxidase based test, cellulose based system, sputum; conditions: filter paper discs, H202, 5 minutes
T2 sequence (P05164 49-745): T1 sequence (P05164 49-745)
Protocol: 1.5 µl of H202 (50 mM) and 1.5 µl of the substrates (109 mM ABTS, 454 mM TMB, 230 mM Fast Blue, x mM Guaiacol, x mM 4-Amino-3-methoxy benzoic acid) were incubated on small Whatmann Filterpaper discs.

[4] = test system: Phospholipase A2; test: Phospholipase A2 based test, liquid system, wound fluid; conditions: room temperature, 30 minutes
Protocol: Preparation of diagnostic system. For this diagnostic tool, 4-Nitro-3- octanoylbenzoic acid as Phospholipase A2 - substrate was used. 4-Nitro-3-octanoylbenzoic acid (1.7 mM) is dissolved in assay buffer containing 50 mM Tris/HCl buffer pH 7.2, 150 mM KCL and 10 mM CaC12. 190 µl of the buffer are pipetted into a microtiterplate.
as §1

[5] = test system: Phospholipase A2; test: Phospholipase A2 based test, liquid system, sputum; conditions: room temperature, 30 minutes
Protocol: For this diagnostic tool, 4-Nitro-3-octanoylbenzoic acid as Phospholipase A2 - substrate was used. 4-Nitro-3-octanoylbenzoic acid (1.7 mM) is dissolved in assay buffer containing 50 mM Tris/HCl buffer pH 7.2, 150 mM KCL and 10 mM CaC12. 190 µl of the buffer are pipetted into a microtiterplate.
as §1

[6] = test system: Catalase; test: Catalase based test, liquid system, sputum; conditions: room temperature, 30 minutes
Protocol: For this diagnostic tool: Purpald as substrate for catalase was used. Purpalt is dissolved in water (50-100 mM?). 200 µl of substrate solution are pipetted into a microtiterplate.
as §1

[7] = test system: Catalase; test: Catalase based test, liquid system, wound fluid; conditions: room temperature, 30 minutes
Protocol: For this diagnostic tool: Purpald as substrate for Catalase was used. Purpalt is dissolved in water (50-100 mM). 200 µl of substrate solution are pipetted into a microtiterplate.
as §1

[8] = target: T2, Myeloperoxidase; test: Myeloperoxidase based test, liquid system, sputum; conditions: succinate buffer pH 5.4, H202, 5 minutes
[9] = infected wound fluid samples A, B, C
[10] = non infected wound fluid samples D, E, F
[11] = infected sputum samples A, B, C
[12] = non infected sputum samples D, E, F

C[N+](C)(C)CCOP(=O)([O-])Oc1ccc([N+](=O)[O-])cc1 [p-Nitrophenylphosphorylcholine] was tested. Which Test response [1, 9] did it give?
Its Test response is “yellow”.

And the Test response ([1]; non-infected wound fluid samples D, E, F)?
The Test response was “No colour change”.

Which “colour of solution upon MPO oxidation” value [2] does the source give for Nc1ccc(C(=O)O)cc1N [3,4-Diamino benzoic acid] here?
Its value is “turned brownish”.

How did the Test response ([3]; infected sputum samples A, B) turn out when COc1cc(C(=O)O)ccc1N [Compound 4A3Mba, 4-Amino-3-methoxy benzoic acid] was run?
The Test response was “brown”.

And the Test response ([3]; non infected sputum samples C, D)?
The Test response was “No colour change”.

Which Test response [4, 9] does the source give for CCCCCCCC(=O)c1cc(C(=O)O)ccc1[N+](=O)[O-] [4-Nitro-3-octanoylbenzoic acid] here?
Its Test response is “yellow”.

What about the Test response [4, 10] of the same compound?
Its Test response is “No colour change”.

What about the Test response [5, 11] of the same compound?
The Test response was “yellow”.

What about the Test response [5, 12] of the same compound?
Its Test response is “No colour change”.

Which Test response [6, 11] does the source give for NNc1n[nH]c(=S)n1N [Purpald] here?
The Test response was “yellow”.

And the Test response ([6]; non-infected sputum samples D, E, F)?
Its Test response is “No colour change”.

What about the Test response [7, 9] of the same compound?
The Test response was “yellow”.

And the Test response [7, 10]?
Its Test response is “No colour change”.

With Cc1cc(-c2cc(C)c(N)c(C)c2)cc(C)c1N [TMB, 3, 3′, 5, 5′ -Tetramethylbenzidine] as the compound, how does the Test response [8, 11] read?
Its Test response is “blue”.

And the Test response [8, 12]?
The Test response was “No colour change”.
